# From ChEMBL document CHEMBL4017441, “Mitigating the inhibition of human bile salt export pump by drugs: opportunities provided by physicochemical property modulation, in silico modeling, and structural modification” (Drug Metab Dispos, 2012)
# Where a name gives a salt, the structure may show the parent alone.
# Target: Bile salt export pump (Homo sapiens, UniProt O95342)
# Assay type: ADME
row,Compound,IC50
1,CC(C)(Oc1ccc(CCNC(=O)c2ccc(Cl)cc2)cc1)C(=O)O [BEZAFIBRATE],181 µM
2,C/C=C/C(=O)N(CC)c1ccccc1C,110 µM
3,C#C[C@]1(O)CC[C@H]2[C@@H]3CCC4=Cc5oncc5C[C@]4(C)[C@H]3CC[C@@]21C [DANAZOL],< 10 µM
4,NS(=O)(=O)c1cc2c(cc1C(F)(F)F)NCNS2(=O)=O [HYDROFLUMETHIAZIDE],> 1000 µM
5,O=C(O)Cc1ccccc1Nc1c(Cl)cccc1Cl [DICLOFENAC],65 µM
6,C[C@H](NCc1ccc(OCc2ccccc2F)cc1)C(N)=O [RALFINAMIDE],175 µM
7,CCOCCNS(=O)(=O)c1ccc(Nc2nccc(-c3cnc(C)n3C(C)C)n2)cc1,< 10 µM
8,O=CN(O)C(CCc1ccccc1)CS(=O)(=O)N1CCN(c2ccc(Cl)cn2)CC1 (stereo not drawn),< 10 µM
9,CC1(C)O[C@@H]2[C@@H](CO[C@@]3(COS(N)(=O)=O)OC(C)(C)O[C@@H]23)O1 [TOPIRAMATE],> 1000 µM
10,O=c1[nH]c2c(O)ccc(CCNCCS(=O)(=O)CCCOCCc3ccccc3)c2s1 [SIBENADET],< 10 µM
11,CCN(CC)C(=S)S [DITIOCARB],69.3 µM
12,CCCCC[C@H](O)/C=C/[C@H]1[C@H](O)CC(=O)[C@@H]1C/C=C\CCCC(=O)O [DINOPROSTONE],> 1000 µM
13,CC(=O)Nc1ccc(CC(=O)O)cc1 [ACTARIT],> 1000 µM
14,C[C@H](CN(C(=O)c1ccc(C#N)cc1)c1ccccn1)N1CCN(c2cccc3c2OCCO3)CC1 [LECOZOTAN],< 10 µM
15,CN1CCN(c2ccccc2/C=C2/SCCN(c3ccc(Cl)c(Cl)c3)C2=O)CC1,< 10 µM
16,C=CCOc1ccccc1OCC(O)CNC(C)C (stereo not drawn) [OXPRENOLOL],> 1000 µM
17,CCCCOc1ccc(C(=O)CCN2CCCCC2)cc1 [DYCLONINE],275 µM
18,Cc1ccc(S(=O)(=O)NC(=O)NN2CC3CCCC3C2)cc1 (stereo not drawn) [GLICLAZIDE],591 µM
19,Oc1ccc(C(O)CNCCCCCCNCC(O)c2ccc(O)c(O)c2)cc1O (stereo not drawn) [HEXOPRENALINE],> 1000 µM
20,NS(=O)(=O)c1ccc(-c2ccc(OC[C@H](O)CCc3cccnc3)cc2)s1,> 1000 µM
21,NC(=O)c1ccccc1O [SALICYLAMIDE],> 1000 µM
22,CC(C)(CO)[C@@H](O)C(=O)NCCCO [DEXPANTHENOL],> 1000 µM
23,CC1=C(C(=O)O)N2C(=O)[C@@H](NC(=O)C(N)C3=CCC=CC3)C2SC1 (stereo partly drawn),> 1000 µM
24,O=C1c2ccccc2CN2C(=O)c3ccccc3CN12 [DIFTALONE],> 1000 µM
25,CCC(=N\O)/C(C)=C/c1ccc(F)cc1 [A-079],26.8 µM

row,Compound,IC50
1,O=c1c2ccccc2[se]n1-c1ccccc1 [EBSELEN],< 10 µM
2,CCCCCC(O)C1C(=O)OC(C)C(O)/C=C/C=C/C=C/C=C/C=C(/C)C(O)CC(O)CC(O)CC(O)CC(O)CC(O)CC1O (stereo not drawn),164 µM
3,CN1CC(=O)N=C1NC(=O)Nc1cccc(Cl)c1 [FENOBAM ANHYDROUS],> 1000 µM
4,CC(Cc1ccccc1)(NC(=O)CN)c1ccccc1 (stereo not drawn) [REMACEMIDE],288 µM
5,CCc1nn(CCCN2CCN(c3cccc(Cl)c3)CC2)c(=O)n1CCOc1ccccc1 [NEFAZODONE],< 10 µM
6,CN(C)C(=O)c1ccc(S(=O)(=O)c2ccc(NC(=O)[C@@](C)(O)C(F)(F)F)c(Cl)c2)cc1,< 12.8 µM
7,CCCCN(CCCC)CCCOC(=O)c1ccc(N)cc1 [BUTACAINE],488 µM
8,c1ccc2c(c1)sc1ccccc12 [DIBENZOTHIOPHENE],388 µM
9,FC(F)(F)c1cccc(C2=CCN(CCc3ccc4ccccc4c3)CC2)c1 [XALIPRODEN],117 µM
10,CSCCNc1nc(SCCC(F)(F)F)nc2c1ncn2[C@@H]1O[C@H](COP(=O)(O)OP(=O)(O)C(Cl)(Cl)P(=O)(O)O)[C@@H](O)[C@H]1O [CANGRELOR],> 1000 µM
11,Cc1cc(NS(=O)(=O)c2ccc(N)cc2)no1 [SULFAMETHOXAZOLE],> 1000 µM
12,CCCSc1nc(N)c2ncn([C@@H]3O[C@H](CO)[C@@H](O)[C@H]3O)c2n1,> 1000 µM
13,C1CCc2nnnn2CC1 [PENTYLENETETRAZOL],> 1000 µM
14,CCCc1c2nc(C(=O)O)cc(O)c2cc2c(=O)cc(C(=O)O)oc12,> 1000 µM
15,CS(=O)(=O)Oc1ccc(OCCc2ccc(C[C@H](SCCc3ccc(O)cc3)C(=O)O)cc2)cc1,< 13.4 µM
16,CC1COc2c(N3CCN(C)CC3)c(F)cc3c(=O)c(C(=O)O)cn1c23 (stereo not drawn) [OFLOXACIN],> 1000 µM
17,COc1ccccc1Oc1c(NS(=O)(=O)c2ccc(C(C)(C)C)cc2)nc(-c2ncccn2)nc1OCCO [BOSENTAN],< 25.3 µM
18,CC[C@@H](C(N)=O)N1CCCC1=O,> 1000 µM
19,O=[N+]([O-])c1cc([As](=O)(O)O)ccc1O [ROXARSONE],> 1000 µM
20,CC(=O)Oc1c(C)cc(Nc2ccn(-c3ccccc3)n2)cc1C,< 10 µM
21,COc1cccc(N2C(N)=NC(N)=NC23CCCCC3)c1,> 1000 µM
22,CC1=C(/C=C/C(C)=C/C=C/C(C)=C/C=C/C=C(C)/C=C/C=C(C)/C=C/C2=C(C)CCCC2(C)C)C(C)(C)CCC1 [BETA CAROTENE],< 10 µM
23,CC(C)NCC(O)c1ccc(O)c(O)c1 (stereo not drawn) [ISOPROTERENOL],> 986 µM
24,CC(C)(C)c1ccc(C(O)CCCN2CCC(C(O)(c3ccccc3)c3ccccc3)CC2)cc1 (stereo not drawn) [TERFENADINE],< 17.5 µM
25,CN[C@]1(C)[C@H]2CC[C@H](C2)C1(C)C,> 1000 µM

row,Compound,IC50
1,O=CN(O)C(CCc1ncccn1)CS(=O)(=O)N1CCN(c2ccc(Cl)cn2)CC1 (stereo not drawn),< 10 µM
2,Cc1ccnc(NS(=O)(=O)c2ccc(N)cc2)n1 [SULFAMERAZINE],> 1000 µM
3,Oc1c(I)cc(I)c2cccnc12 [IODOQUINOL],> 1000 µM
4,Fc1ccc([C@@H]2CCNC[C@H]2COc2ccc3c(c2)OCO3)cc1 [PAROXETINE HYDROCHLORIDE],68.9 µM
5,OCCN1CCN(CCCN2c3ccccc3Sc3ccc(C(F)(F)F)cc32)CC1 [FLUPHENAZINE],25.8 µM
6,O=c1[nH]c2c(O)ccc(CCNCCCS(=O)(=O)CCCOCCc3ccccc3)c2s1,32.4 µM
7,Cc1ccc2c(c1)c1c(n2CCc2ccc(C)nc2)CCN(C)C1 [LATREPIRDINE],136 µM
8,N=C(N)N1CCc2ccccc2C1 [DEBRISOQUIN],> 952 µM
9,CC1=C(C)C(=O)C(C(CCCCCC(=O)O)c2ccccc2)=C(C)C1=O (stereo not drawn) [SERATRODAST],< 14.3 µM
10,CN[C@H]1C(O[C@H]2C(OC3C(O)C(O)C(NC(=N)N)C(O)C3NC(=N)N)OC(C)[C@]2(O)C=O)O[C@H](CO)[C@@H](O)[C@@H]1O (stereo partly drawn),> 1000 µM
11,CC[C@H]1OC(=O)[C@H](C)[C@H](O[C@H]2C[C@@](C)(OC)[C@@H](O)[C@H](C)O2)[C@@H](C)[C@@H](O[C@@H]2O[C@H](C)C[C@H](N(C)C)[C@H]2O)[C@@](C)(OC)C[C@@H](C)C(=O)[C@H](C)[C@H](O)[C@]1(C)O,< 12.9 µM
12,CC1(C)OC(=O)NC1=O [DIMETHADIONE],> 1000 µM
13,CCCCNc1ccc(C(=O)OCCOCCOCCOCCOCCOCCOCCOCCOCCOC)cc1 [BENZONATATE],< 10 µM
14,CC(C)COCC(CN(Cc1ccccc1)c1ccccc1)N1CCCC1 (stereo not drawn) [BEPRIDIL],< 16.5 µM
15,COC(=O)C1=C(C)NC(C)=C(C(=O)OCCN(C)Cc2ccccc2)C1c1cccc([N+](=O)[O-])c1 (stereo not drawn) [NICARDIPINE],< 10 µM
16,CCOc1ccc2nc3cc(N)ccc3c(N)c2c1 [ETHACRIDINE],43.5 µM
17,CCN(CC)CCOc1ccc(C(=C(Cl)c2ccccc2)c2ccccc2)cc1 [CLOMIPHENE],< 10 µM
18,O=C(O)Cc1ccccc1Oc1ccc(Cl)cc1Cl [FENCLOFENAC],236 µM
19,Cc1ccc(-n2c3c/c(=N\C(C)C)c(Nc4ccc(Cl)cc4)cc-3nc3ccccc32)cc1,135 µM
20,Clc1ccc(COC(Cn2ccnc2)c2ccc(Cl)cc2Cl)c(Cl)c1 (stereo not drawn) [MICONAZOLE],< 10 µM
21,CCCc1ccc(OCC(C)O)c2c(=O)cc(C(=O)O)oc12 (stereo not drawn),271 µM
22,Cc1noc(NS(=O)(=O)c2ccc(N)cc2)c1C [SULFISOXAZOLE],> 1000 µM
23,C[N+](C)(C)CC(O)CC(=O)[O-] (stereo not drawn) [CARNITINE],> 1000 µM
24,CC(NC(C)(C)C)C(=O)c1cccc(Cl)c1 (stereo not drawn) [BUPROPION],> 1000 µM
25,O=C(O)c1cc2c(F)c(O)ccc2n1Cc1ccc(Cl)c(Cl)c1,19.3 µM

row,Compound,IC50
1,CN1CCC[C@H]1c1cccnc1 [NICOTINE],> 1000 µM
2,CN(C)CCC=C1c2ccccc2C=Cc2ccccc21 [CYCLOBENZAPRINE],107 µM
3,COc1ccc(C(CN(C)C)C2(O)CCCCC2)cc1 (stereo not drawn) [VENLAFAXINE],> 1000 µM
4,COc1ccccc1N1CCN(CCCNc2cc(=O)n(C)c(=O)n2C)CC1,< 11.3 µM
5,Oc1ccc(Cl)c2cccnc12 [CLOXYQUIN],357 µM
6,Cc1cc(CCC(=O)O)cc(C)c1-c1nc2ccc(-c3nnc(Nc4cccc(Cl)c4)o3)cc2[nH]1,< 10 µM
7,COc1cc(Nc2ncc(F)c(Nc3ccc4c(n3)NC(=O)C(C)(C)O4)n2)cc(OC)c1OC [R-406],197 µM
8,Nc1ccccc1C(=O)NCC(=O)O,> 1000 µM
9,Nc1ccc(S(=O)(=O)Nc2ncccn2)cc1 [SULFADIAZINE],> 1000 µM
10,O=C(OCC(O)CO)c1ccccc1Nc1ccnc2cc(Cl)ccc12 (stereo not drawn) [GLAFENINE],< 14.9 µM
11,COC(=O)C1=C(C#N)NC(C)=C(C(=O)OC(C)C)C1c1cccc([N+](=O)[O-])c1 (stereo not drawn) [NILVADIPINE],< 10 µM
12,C[N+]1(C)CCCC(OC(=O)C(O)(c2ccccc2)c2ccccc2)C1 (stereo not drawn) [MEPENZOLATE BROMIDE],> 1000 µM
13,COc1cc(Cc2cnc(N)nc2N)cc(OC)c1OC [TRIMETHOPRIM],833 µM
14,O=C1CN(/N=C/c2ccc(-c3ccc([N+](=O)[O-])cc3)o2)C(O)=N1 [DANTROLENE],145 µM
15,CCCCc1ccc2[nH]c(NC(=O)OC)nc2c1 [PARBENDAZOLE],> 1000 µM
16,CCCc1c2oc(C(=O)O)cc(=O)c2cc2c(=O)cc(C(=O)O)n(CC)c12 [NEDOCROMIL],> 1000 µM
17,N[C@H]1C[C@@H]1c1ccccc1 [(+)-TRANYLCYPROMINE],103 µM
18,C#Cc1cccc(Nc2ncnc3cc(OCCOC)c(OCCOC)cc23)c1 [ERLOTINIB],< 10 µM
19,CC(C)C(=O)Nc1ccc([N+](=O)[O-])c(C(F)(F)F)c1 [FLUTAMIDE],60.8 µM
20,COc1ccc2c(c1OC)C(=O)OC2C1c2cc3c(cc2CCN1C)OCO3 (stereo not drawn),65.6 µM
21,C=CCN1CC[C@]23c4c5ccc(O)c4O[C@H]2C(=O)CC[C@@]3(O)[C@H]1C5 [NALOXONE],549 µM
22,C[N+](C)(C)CCOC(N)=O [CARBAMOYLCHOLINE],> 1000 µM
23,CCOCn1cnc2c1c(=O)n(CCCCC(C)(C)O)c(=O)n2C [TORBAFYLLINE],305 µM
